Experimental findings from patent US20230321063A1, “COMPOSITIONS AND METHODS TO REDUCE NEUROINFLAMMATION” (Seattle Children's Hospital d/b/a Seattle Children's …, priority 2020, published 2023) are described below.

This experiment concerns Ndufs4(KO) mice. As to the kind of experiment: Rotarod assay. The class given is in vivo, mouse. To be noted: latency to fall up to 10 min, 6 rpm. The protocol:
Rotarod and rotarod seizures. Rotarod assays were performed using a Med Associates Inc. (Fairfax, VT) ENV-571M single lane rotarod with a black mat installed in the floor of the lane to reduce visibility of the bottom. Assays were performed by placing animals onto an already rotating rod and timing latency to fall, with a steady rotation speed set to 6 rpm (controlled by attached laptop and Med Associates software). The maximum time of each trial was 10 min, with the trial ending at that time if mice were still on the rotarod. For each assay, three trials were performed, with a minimum of 5 min between each assay. The best of the three trials was reported for the rotarod data. As detailed in the text and figure legends, rotarod was performed each 10 days of age from P30; mice in a given age group were the reported age +/−1 day.
(In general: The rotarod test checks motor coordination on a turning rod.)

“Also recorded” adds a separate entry of the source.

For `FC(F)(F)c1ccc(CNc2ccc(Cc3c[nH]c4ncc(Cl)cc34)cn2)cn1` [pexidartinib, 5-[(5-chloro-1H-pyrrolo[2,3-b]pyridin-3-yl)methyl]-N-[[6-(trifluoromethyl)pyridin-3-yl]methyl]pyridin-2-amine], the “performance on rotarod assay” value is given as “rescued performance; also recorded: dose-dependent effect”.
